Here are results for eleven molecules from ChEMBL document CHEMBL5356930, “Small-molecule inhibitors of bacterial-producing metallo-β-lactamases: insights into their resistance mechanisms and biochemical analyses of their activities” (RSC Med Chem, 2023).

≈ marks a conversion by molar mass, not a printed value. Some results are limits rather than exact numbers.

Data set [1] concerns L929. The data set can be described thus: Cytotoxicity against mouse L929 cells at 50 uM incubated for 48 hrs by CCK8 assay relative to control. Format: toxicity, cell-based. The conditions noted are these: l929, 48 h. In general terms: Formazan colour is commonly taken as a measure of viable cells.
The target in data set [2] is T1, Metallo-beta-lactamase type 2 (Bacteria, UniProt C7C422). Description: Inhibition of bacterial NDM-1 (unknown origin) using imipenem as substrate by Agilent UV8453 Spectrometric analysis.
Data set [3] is described as follows: Binding affinity to bacterial Metallo-beta-lactamase IMP-1 (unknown origin) using FC5 as substrate preincubated for 15 min followed by substrate addition by fluorescence based assay. Set-up: species or system Bacteria.
Data set [4] concerns Escherichia coli. The data set can be described thus: Antibacterial activity against NDM-1-producing Escherichia coli RC0089 incubated for 16 to 20 hrs in presence of meropenem CLSI-based assay. The class given is functional. The conditions noted are these: time 16-20 hrs.
In data set [5] the test system is Escherichia coli. Description: Synergistic activity against NDM-1-producing Escherichia coli RC0089 assessed as fractional inhibition concentration index in presence of meropenem by CLSI-based assay. Format: functional.
A short description of data set [6]: Cytotoxicity against human HepG2 cells incubated for 24 hrs by CellTiter-Glo assay. The class given is toxicity, cell-based. A general note: Cellular ATP, detected with luciferase, serves as a proxy for viable cell number.
A short description of data set [7]: Inhibition of His-tagged recombinant bacterial Metallo-beta-lactamase IMP-1 (unknown origin) expressed in Escherichia coli BL21 star cells. Set-up: species or system Bacteria.
The subject of data set [8] is Escherichia coli. Description: Antibacterial activity against IMP-type producing Escherichia coli clinical isolate in presence of meropenem by CLSI-based broth microdilution method. The class given is functional. A general note: In broth dilution the organism is exposed to a series of concentrations in liquid medium.
The subject of data set [9] is Escherichia coli. Description: Antibacterial activity against IMP-type producing Escherichia coli clinical isolate in presence of imipenem by CLSI-based broth microdilution method. The class given is functional.
Data set [10] deals with Escherichia coli. The data set can be described thus: Antibacterial activity against NDM-1-producing Escherichia coli assessed as fold reduction in MIC in presence of meropenem CLSI-based broth microdilution method. The class given is functional.
The test system of data set [11] is Klebsiella pneumoniae. The data set can be described thus: Antibacterial activity against NDM-1-producing Klebsiella pneumoniae clinical isolate assessed as fold reduction in MIC in presence of meropenem CLSI-based broth microdilution method. Format: functional.
Data set [12] addresses Metallo-beta-lactamase VIM-2 (Pseudomonas aeruginosa, UniProt D1MEN9). Description: Inhibition of N-terminal His-tagged recombinant Pseudomonas aeruginosa Metallo-beta-lactamase VIM-2 expressed in Escherichia coli BL21 star cells using nitrocefin as substrate by absorbance based assay.
Data set [13] deals with Klebsiella pneumoniae. The data set can be described thus: Antibacterial activity against VIM-1-producing Klebsiella pneumoniae NCTC 13440 clinical isolate by CLSI-based broth microdilution method. Format: functional.
Data set [14] has as its target T1, Metallo-beta-lactamase type 2. Description: Inhibition of bacterial NDM-1 (unknown origin) using nitrocefin as substrate incubated for 10 mins followed by substrate addition by absorbance based assay.
Data set [15] in a line: Inhibition of bacterial Metallo-beta-lactamase VIM-2 (unknown origin). Set-up: species or system Bacteria.
The nature of data set [16]: Inhibition of bacterial Metallo-beta-lactamase GIM-1 using nitrocefin as substrate. Also noted: species or system Bacteria.
The target of data set [17] is T1, Metallo-beta-lactamase type 2. The data set can be described thus: Binding affinity to bacterial NDM-1 (unknown origin) assessed as inhibition constant. The note with it: read-out: Ki.
Data set [18] has the same target. Description: Inhibition of bacterial NDM-1 (unknown origin) using imipenem as substrate.
A further data set relates to MCF7. Description: Cytotoxicity against human MCF7 cells at 12.5 uM relative to control. Format: toxicity, cell-based. The conditions noted are these: mcf7, 12.5 µM.
The target of the next data set is Beta-lactamase VIM-1 (Bacteria, UniProt Q8GDC1). Description: Inhibition of bacterial Metallo-beta-lactamase VIM-1 (unknown origin).
A short description of data set [19]: Inhibition of bacterial Metallo-beta-lactamase VIM-4 (unknown origin). Set-up: species or system Bacteria.
Data set [20] is described as follows: Binding affinity to bacterial Metallo-beta-lactamase VIM-2 (unknown origin) assessed as inhibition constant. Set-up: species or system Bacteria.
Data set [21] in a line: Inhibition of Acinetobacter baumannii Metallo-beta-lactamase IMP-1.
A further data set concerns Acinetobacter baumannii. The data set can be described thus: Antibacterial activity against MBL-producing Acinetobacter baumannii assessed as diameter of inhibition zone in presence of imipenem. Format: functional.
Data set [22] in a line: Cytotoxicity against human HepG2 cells incubated for 24 hrs by AlamarBlue-based assay. The class given is toxicity, cell-based.
Data set [23] addresses T1, Metallo-beta-lactamase type 2. Description: Inhibition of bacterial NDM-1 (unknown origin).
The next data set relates to Vero C1008. The data set can be described thus: Cytotoxicity against African green monkey Vero E6 cells at 40 ug/ml relative to control. Format: toxicity, cell-based. The note with it: chlorocebus sabaeus, at 40 µg/mL.
The test system of data set [24] is L929. The data set can be described thus: Cytotoxicity against mouse L929 cells at 40 ug/ml relative to control. Format: toxicity, cell-based. The note with it: at 40 µg/mL.
In data set [25] the test system is Escherichia coli. The data set can be described thus: Synergistic activity against NDM-1-producing engineered Escherichia coli assessed as fractional inhibition concentration index in presence of meropenem. The class given is functional.
In data set [26] the test system is Escherichia coli. Description: Synergistic activity against multiple NDM-1-producing engineered Escherichia coli clinical isolate assessed as fractional inhibition concentration index in presence of meropenem. Format: functional.
The nature of data set [27]: Inhibition of Acinetobacter baumannii recombinant NDM-1 using nitrocefin as substrate preincubated for 10 mins followed by substrate addition by spectrophotometric analysis.

Usually IC50 stands for the concentration that gives 50% inhibition. By MIC is commonly meant the lowest concentration that inhibits growth of the organism. For orientation: CC50 means the concentration at which the toxic effect on the cells reaches its halfway point. As usually defined, the MIC50 is an inhibitory concentration at the 50% level, which refers to growth in some studies and to a panel of isolates in others. What is called Ki is the equilibrium dissociation constant of an inhibitor or competing ligand from its target.

T1 sequence (C7C422 whole entry): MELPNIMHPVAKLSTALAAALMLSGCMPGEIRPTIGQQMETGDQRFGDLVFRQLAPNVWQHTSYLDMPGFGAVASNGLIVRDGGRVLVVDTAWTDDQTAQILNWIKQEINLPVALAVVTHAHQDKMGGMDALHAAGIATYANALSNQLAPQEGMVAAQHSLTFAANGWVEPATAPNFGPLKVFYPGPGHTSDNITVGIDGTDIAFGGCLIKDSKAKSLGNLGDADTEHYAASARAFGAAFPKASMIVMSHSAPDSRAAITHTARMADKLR

`S=C(N/N=C/c1ccccn1)Nc1ccc(Cl)cc1` showed an Activity in the data set on L929 [1] above 60%. This molecule also gave a 50% inhibitory concentration (IC50) in [2] of 38 nM.

On to `CC(C)c1cccc2c(-c3ccc(F)cc3)c(C(=O)O)[nH]c12`, for which the IC50 in data set [3] came to 140 nM. The minimal inhibitory concentration (MIC) in the data set with Escherichia coli [4] was 16 µg/mL. Further, the “fractional inhibitory concentration index (FICI)” value in the data set on Escherichia coli [5] is given as 0.258.

`Nc1ccc(-c2ccn(S(N)(=O)=O)c2C(=O)O)cn1` returned a CC50 at 24 h in data set [6] above 256 µg/mL. Also, the IC50 in [7] is 430 nM; in data set [12], 32400 nM. Besides, the minimal inhibitory concentration (MIC) amounted to 0.03 µg/mL with Escherichia coli [8] and 0.25 µg/mL in the data set on Escherichia coli [9]. The “fold change (FC)” value with Escherichia coli [10] and in the data set with Klebsiella pneumoniae [11] was 32 throughout. The MIC50 in the data set with Klebsiella pneumoniae [13] amounted to 0.06 µg/mL (≈ 0.213 µM).

The molecule `O=C(Cc1ccccc1)N[C@@H]1C(=O)N2C(C(=O)O)=C(CSc3cccc[n+]3[O-])CS[C@H]12` came in with a half-maximal inhibitory concentration (IC50) in data set [14] of 7600 nM.

In the case of `COP(=O)(CCSC(C)=O)NCc1ccccn1` (configuration not stated), the IC50 in [15] was determined as 2200 nM; in data set [16] it was 86000 nM.

On to `O=S(=O)(Nc1cccc2cccnc12)c1ccc(Cl)cc1`, for which, in data set [17], the Ki was found to be 5900 nM. Further, in [18], the 50% inhibitory concentration (IC50) was 20 nM. For the same molecule, in the data set on MCF7, the Activity is below 60%.

As for `O=C(O)c1ccccc1CCn1c(-c2cccc(-c3ccccc3)c2)n[nH]c1=S`, the IC50 against Beta-lactamase VIM-1 worked out at 1610 nM; in data set [15] it was 80 nM; in data set [19], 2100 nM. The inhibition constant (Ki) in data set [20] was 38 nM.

As to `Oc1ccccc1/C=N/c1cccnc1/N=C/c1ccccc1O`, inhibition in data set [21] was half-maximal at 93700 nM (IC50). Further, in the data set with Acinetobacter baumannii, the “diameter of the inhibition zone (DIZ)” value was found to be 23 mm.

The molecule `CN(C[C@H](O)[C@@H](O)[C@H](O)[C@H](O)CO)C(=O)c1ccc(CN(Cc2ccccn2)Cc2ccccn2)nc1` showed an IC50 at 24 h in [22] above 100000 nM.

The molecule `CO[C@H]1C(=O)N2C(C(=O)O)=C(CSc3nc4ccccc4s3)CS[C@H]12` showed an IC50 in data set [23] of 96 nM. Moreover, the Activity in the data set with Vero C1008 and with L929 [24] was above 60% in each case. The “fractional inhibitory concentration index (FICI)” value in the data set on Escherichia coli [25] was determined as 0.02; in the data set on Escherichia coli [26] it was 0.031.

As for `CC1=C(CO)C(=O)O[C@@H]([C@@H](C)[C@H]2CC[C@H]3[C@@H]4C[C@H]5O[C@]56[C@@H](O)C=CC(=O)[C@]6(C)[C@H]4CC[C@]23C)C1` [WITHAFERIN A], in data set [27], the half-maximal inhibitory concentration (IC50) came to 24000 nM.
